Assay results reported in BindingDB's records for doi:10.1021/jm800566m (Gsk, 2008).
pIC50: −log10 of the molar value.

Test: The assay uses purified baculovirus-expressed GST-VEGFR2 interacting with biotinylated peptide substrates. HTRF is based on the proximity of europium cryptate (donor fluorophore)-labeled antiphosphotyrosine and streptavidin labeled with APC (allophycocyanin), which have been brought together by a binding reaction.
Details: pH 7.5

Structure (SMILES)	pIC50
CN(c1ccc2cn(C)nc2c1)c1ccnc(Nc2cccc(S(N)(=O)=O)c2)n1 [3-({4-[methyl(2-methyl-2H-indazol-6-yl)amino]pyrimidin-2-yl}amino)benzene-1-sulfonamide]	8.12
Cc1nn(C)c2cc(N(C)c3ccnc(Nc4cccc(S(N)(=O)=O)c4)n3)ccc12 [3-({4-[(1,3-dimethyl-1H-indazol-6-yl)(methyl)amino]pyrimidin-2-yl}amino)benzene-1-sulfonamide]	7.44
Cc1c2ccc(N(C)c3ccnc(Nc4cccc(S(N)(=O)=O)c4)n3)cc2nn1Cc1ccccc1 [3-({4-[(2-benzyl-3-methyl-2H-indazol-6-yl)(methyl)amino]pyrimidin-2-yl}amino)benzene-1-sulfonamide]	8.59
Cc1n[nH]c2cc(N(C)c3ccnc(Nc4cccc(S(N)(=O)=O)c4)n3)ccc12 [3-({4-[methyl(3-methyl-1H-indazol-6-yl)amino]pyrimidin-2-yl}amino)benzene-1-sulfonamide]	9.22
Cc1c2ccc(N(C)c3ccnc(Nc4cccc(S(N)(=O)=O)c4)n3)cc2nn1C [3-({4-[(2,3-dimethyl-2H-indazol-6-yl)(methyl)amino]pyrimidin-2-yl}amino)benzene-1-sulfonamide]	8.25
Cc1nc2cc(N(C)c3ccnc(Nc4cccc(S(N)(=O)=O)c4)n3)ccc2n1C [3-({4-[(1,2-dimethyl-1H-1,3-benzodiazol-5-yl)(methyl)amino]pyrimidin-2-yl}amino)benzene-1-sulfonamide]	7.77
Cc1nc2ccc(N(C)c3ccnc(Nc4cccc(S(N)(=O)=O)c4)n3)cc2n1C [3-({4-[(1,2-dimethyl-1H-1,3-benzodiazol-6-yl)(methyl)amino]pyrimidin-2-yl}amino)benzene-1-sulfonamide]	7.20
